Measurements: ChEMBL document CHEMBL4418500, “Methods of preventing or treating atherosclerosis with inhibitors of specific isoenzymes of human neuraminidase” (2018)
In brackets after ≈: the same amount, converted by molar mass. Activity calls are given as the source filed them. No cut-off for these calls is given here.

How the values were obtained:
Mus musculus [1] = assay: Reduction in size of fatty streaks in aortic root of normal diet fed 12 week old ApoE KO mouse at 1 mg/kg, ip treated for 4 weeks (once every 2 days for first 2 weeks and then every day for third and the fourth weeks) by Oil Red O staining based assay relative to control; type: functional; design: scale not given: the % may be the effect or the level left
[2] = Solubility in water; type: physicochemical
[3] = Toxicity in normal diet fed 12 week old ApoE KO mouse assessed as effect on body weight at 1 mg/kg, ip treated for 4 weeks (once every 2 days for first 2 weeks and then every day for third and the fourth weeks); type: organism-based; settings: in vivo
[4] = Toxicity in normal diet fed 12 week old ApoE KO mouse assessed as effect on behavior at 1 mg/kg, ip treated for 4 weeks (once every 2 days for first 2 weeks and then every day for third and the fourth weeks); type: organism-based; settings: in vivo
[5] = Toxicity in normal diet fed 12 week old ApoE KO mouse assessed as induction of bleeding at 1 mg/kg, ip treated for 4 weeks (once every 2 days for first 2 weeks and then every day for third and the fourth weeks); type: organism-based; settings: in vivo
[6] = Toxicity in normal diet fed 12 week old ApoE KO mouse assessed as induction of leukocyte infiltration at 1 mg/kg, ip treated for 4 weeks (once every 2 days for first 2 weeks and then every day for third and the fourth weeks); type: organism-based; settings: in vivo
[7] = Toxicity in normal diet fed 12 week old ApoE KO mouse assessed as induction of cytoplasmic vacuolization at 1 mg/kg, ip treated for 4 weeks (once every 2 days for first 2 weeks and then every day for third and the fourth weeks); type: organism-based; settings: in vivo
Mus musculus [8] = organism: Mus musculus; assay: Effect on lipid composition in ApoE KO mouse assessed as effect on total cholesterol level; type: functional, organism-based
Mus musculus [9] = organism: Mus musculus; assay: Effect on lipid composition in ApoE KO mouse assessed as effect on HDL-cholesterol level; type: functional, organism-based
Mus musculus [10] = organism: Mus musculus; assay: Effect on lipid composition in ApoE KO mouse assessed as effect on triglycerides level; type: functional, organism-based
Mus musculus [11] = organism: Mus musculus; assay: Effect on lipid composition in ApoE KO mouse assessed as increase in LDL cholesterol relative to control; type: functional
Mus musculus [12] = assay: Inhibition of neuraminidase-1 activity in kidney of wild type C57BI6 mouse at 30 mg/kg, ip dosed for 2 consecutive days and measured 17 hrs post last dose by X-Neu5Ac substrate based histochemical assay relative to control; type: functional
Mus musculus [13] = assay: Reduction in size of fatty streaks in aortic root of normal diet fed 16 week old ApoE KO mouse at 30 mg/kg, ip treated for 2 weeks (once every 2 days for first week and then every day for second week) by Oil Red O staining based assay relative to control; type: functional; design: scale not given: the % may be the effect or the level left
Mus musculus [14] = assay: Reduction in size of fatty streaks in aortic root of normal diet fed 12 week old ApoE KO mouse at 30 mg/kg, ip treated for 4 weeks (once every 2 days for first 2 weeks and then every day for third and the fourth weeks) by Oil Red O staining based assay relative to control; type: functional; design: scale not given: the % may be the effect or the level left
Mus musculus [15] = assay: Inhibition of neuraminidase-1 activity in normal diet fed ApoE KO mouse at 30 mg/kg, ip treated for 2 weeks (once every 2 days for first week and then every day for second week) by X-Neu5Ac substrate based histochemical assay relative to control; type: functional
[16] = Toxicity in normal diet fed 16 week old ApoE KO mouse assessed as effect on body weight at 30 mg/kg, ip treated for 2 weeks (once every 2 days for first week and then every day for second week) by Oil Red O staining based assay relative to control; type: organism-based; settings: in vivo
[17] = Toxicity in normal diet fed 16 week old ApoE KO mouse assessed as effect on behavior at 30 mg/kg, ip treated for 2 weeks (once every 2 days for first week and then every day for second week) by Oil Red O staining based assay relative to control; type: organism-based; settings: in vivo
[18] = Toxicity in normal diet fed 16 week old ApoE KO mouse assessed as induction of bleeding at 30 mg/kg, ip treated for 2 weeks (once every 2 days for first week and then every day for second week) by Oil Red O staining based assay relative to control; type: organism-based; settings: in vivo
[19] = Toxicity in normal diet fed 16 week old ApoE KO mouse assessed as induction of leukocyte infiltration at 30 mg/kg, ip treated for 2 weeks (once every 2 days for first week and then every day for second week) by Oil Red O staining based assay relative to control; type: organism-based; settings: in vivo
[20] = Toxicity in normal diet fed 16 week old ApoE KO mouse assessed as induction of cytoplasmic vacuolation at 30 mg/kg, ip treated for 2 weeks (once every 2 days for first week and then every day for second week) by Oil Red O staining based assay relative to control; type: organism-based; settings: in vivo
[21] = Toxicity in normal diet fed 12 week old ApoE KO mouse assessed as effect on body weight at 30 mg/kg, ip treated for 4 weeks (once every 2 days for first 2 weeks and then every day for third and the fourth weeks); type: organism-based; settings: in vivo
[22] = Toxicity in normal diet fed 12 week old ApoE KO mouse assessed as effect on behavior at 30 mg/kg, ip treated for 4 weeks (once every 2 days for first 2 weeks and then every day for third and the fourth weeks); type: organism-based; settings: in vivo
[23] = Toxicity in normal diet fed 12 week old ApoE KO mouse assessed as induction of bleeding at 30 mg/kg, ip treated for 4 weeks (once every 2 days for first 2 weeks and then every day for third and the fourth weeks); type: organism-based; settings: in vivo
[24] = Toxicity in normal diet fed 12 week old ApoE KO mouse assessed as induction of leukocyte infiltration at 30 mg/kg, ip treated for 4 weeks (once every 2 days for first 2 weeks and then every day for third and the fourth weeks); type: organism-based; settings: in vivo
[25] = Toxicity in normal diet fed 12 week old ApoE KO mouse assessed as induction of cytoplasmic vacuolization at 30 mg/kg, ip treated for 4 weeks (once every 2 days for first 2 weeks and then every day for third and the fourth weeks); type: organism-based; settings: in vivo
Mus musculus [26] = assay: Inhibition of neuraminidase-3 activity in spleen of wild type C57BI6 mouse at 30 mg/kg, ip dosed for 2 consecutive days and measured 24 hrs post last dose by X-Neu5Ac substrate based histochemical assay relative to control; type: functional
Mus musculus [27] = assay: Inhibition of neuraminidase-4 activity in spleen of wild type C57BI6 mouse at 30 mg/kg, ip dosed for 2 consecutive days and measured 17 hrs post last dose by X-Neu5Ac substrate based histochemical assay relative to control; type: functional
[28] = molecular target: T1, Sialidase-3 (Homo sapiens) (UniProt Q9UQ49); settings: 1 mM
T1 sequence (whole entry): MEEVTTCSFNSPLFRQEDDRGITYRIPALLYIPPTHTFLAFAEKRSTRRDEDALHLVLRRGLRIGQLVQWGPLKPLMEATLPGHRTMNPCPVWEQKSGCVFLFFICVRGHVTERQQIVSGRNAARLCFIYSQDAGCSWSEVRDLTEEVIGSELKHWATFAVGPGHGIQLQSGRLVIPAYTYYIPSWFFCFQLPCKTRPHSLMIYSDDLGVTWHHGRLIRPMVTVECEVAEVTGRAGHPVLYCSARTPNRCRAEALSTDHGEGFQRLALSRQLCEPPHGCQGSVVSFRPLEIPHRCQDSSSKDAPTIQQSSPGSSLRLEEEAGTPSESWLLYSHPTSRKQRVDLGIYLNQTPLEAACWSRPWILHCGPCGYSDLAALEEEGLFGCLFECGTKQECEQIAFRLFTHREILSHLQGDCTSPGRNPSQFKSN

SMILES | Activity (Mus musculus [1]) | Activity [3] | Activity [4] | Activity [5] | Activity [6] | Activity [7] | Activity (Mus musculus [8]) | Activity (Mus musculus [9]) | Activity (Mus musculus [10]) | Activity (Mus musculus [11]) [%] | other results
CCCCC(=O)N[C@H]1[C@H]([C@H](O)[C@H](O)Cc2ccc(-c3ccccc3)cc2)OC(C(=O)OC)=C[C@@H]1O | 25 - 50% | Non-Toxic | Non-Toxic | Non-Toxic | Non-Toxic | Non-Toxic | inactive | inactive | inactive | 50 | solubility ([2]; water, read-out: solubility): ≥ 10000 µg/mL
CC(=O)N[C@H]1[C@H]([C@H](O)[C@H](O)Cn2cc(-c3ccc(-c4ccccc4)cc3)nn2)OC(C(=O)O)=C[C@@H]1NC(=N)N | Active |  |  |  |  |  |  |  |  |  | 
CCCCC(=O)N[C@H]1[C@H]([C@H](O)[C@H](O)Cc2ccc(-c3ccccc3)cc2)OC(C(=O)O)=C[C@@H]1O | Active |  |  |  |  |  |  |  |  |  | 
CCCCC(=O)NC[C@@H](O)[C@@H](O)[C@@H]1OC(C(=O)OC)=C[C@H](O)[C@H]1NC(C)=O |  |  |  |  |  |  | inactive | inactive | inactive | 50 | inhibition in vivo at 30 mg/kg (Mus musculus [12]): 90%; Activity (Mus musculus [13]): 25%; Activity (Mus musculus [14]): 25 - 50%; solubility ([2]; water, read-out: solubility): ≥ 1000 µg/mL; inhibition in vivo at 30 mg/kg (Mus musculus [15]): 70 to 80%; Activity [16]: Non-Toxic; Activity [17]: Non-Toxic; Activity [18]: Non-Toxic; Activity [19]: Non-Toxic; Activity [20]: Non-Toxic; Activity [21]: Non-Toxic; Activity [22]: Non-Toxic; Activity [23]: Non-Toxic; Activity [24]: Non-Toxic; Activity [25]: Non-Toxic
CC(=O)N[C@H]1[C@H]([C@H](O)[C@H](O)Cn2cc(-c3ccc(-c4ccccc4)cc3)nn2)OC(C(=O)O)=C[C@@H]1O | Active |  |  |  |  |  |  |  |  |  | 
COC(=O)C1=C[C@H](O)[C@@H](NC(C)=O)[C@H]([C@H](O)[C@H](O)Cn2cc(-c3ccc(-c4ccccc4)cc3)nn2)O1 | 25 - 50% | Non-Toxic | Non-Toxic | Non-Toxic | Non-Toxic | Non-Toxic |  |  |  |  | inhibition in vivo at 30 mg/kg (Mus musculus [26]): 70 to 80%; inhibition in vivo at 30 mg/kg (Mus musculus [27]): 70 to 80%; solubility ([2]; buffer): 100 µg/mL (≈ 197 µM)
CCCCC(=O)NC[C@@H](O)[C@@H](O)[C@@H]1OC(C(=O)O)=C[C@H](O)[C@H]1NC(C)=O |  |  |  |  |  |  |  |  |  |  | Activity (Mus musculus [13]): Active; Activity (Mus musculus [14]): Active
CC(=O)N[C@H]1[C@H]([C@H](O)[C@H](O)CO)OC(C(=O)O)=C[C@@H]1O |  |  |  |  |  |  |  |  |  |  | inhibition [28]: Active
COC(=O)C1=C[C@H](NC(=N)N)[C@@H](NC(C)=O)[C@H]([C@H](O)[C@H](O)Cn2cc(-c3ccc(-c4ccccc4)cc3)nn2)O1 | 25 - 50% | Non-Toxic | Non-Toxic | Non-Toxic | Non-Toxic | Non-Toxic | inactive | inactive | inactive | 50 | 
